According to patent publication US7045658B2, “Formailide derivatives as beta2-adrenoreceptor agonists” (Glaxo Group Limited, priority 2001, dated 2006):

Target: T1, human beta 2 adrenoreceptor (Homo sapiens, UniProt P07550)
T1 construct: expressed in transfected cells; host or cells: frog melanophores
Test: frog melanophores transfected with human beta 2 adrenoreceptor, pigment dispersal (light transmittance)
Assay type: cell-based
Details: melatonin-induced pigment aggregation, change in light transmittance, read-out: IC50 values at the human beta 2 adrenoreceptor (beta 2 agonist activity)
Protocol: The potencies of the aforementioned compounds were determined using frog melanophores transfected with the human beta 2 adrenoreceptor. The cells were incubated with melatonin to induce pigment aggregation. Pigment dispersal was induced by compounds acting on the human beta 2 adrenoreceptor. The beta 2 agonist activity of test compounds was assessed by their ability to induce a change in light transmittance across a melanophore monolayer (a consequence of pigment dispersal).

T1 sequence (P07550 whole entry): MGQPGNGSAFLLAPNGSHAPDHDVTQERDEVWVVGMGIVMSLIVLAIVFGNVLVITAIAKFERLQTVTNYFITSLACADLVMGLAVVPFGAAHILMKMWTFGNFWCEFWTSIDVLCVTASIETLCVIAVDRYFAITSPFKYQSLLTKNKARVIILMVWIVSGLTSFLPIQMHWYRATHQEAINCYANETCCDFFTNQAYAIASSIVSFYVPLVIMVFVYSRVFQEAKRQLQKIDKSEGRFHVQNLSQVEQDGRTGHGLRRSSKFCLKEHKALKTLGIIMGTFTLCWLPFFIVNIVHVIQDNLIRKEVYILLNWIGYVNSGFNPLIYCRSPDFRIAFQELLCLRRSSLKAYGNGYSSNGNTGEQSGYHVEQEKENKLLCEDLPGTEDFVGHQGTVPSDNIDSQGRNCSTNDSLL

Row | IC50 | SMILES
1 | < 1000 nM | CC(C)(C)NS(=O)(=O)c1cccc(CCCCOCCCCCCNC[C@H](O)c2ccc(O)c(NC=O)c2)c1 [Example 2, N-(tert-Butyl)-3-(4-{[6-({(2R)-2-[3-(formylamino)-4-hydroxyphenyl]-2-hydroxyethyl}amino)hexyl]oxy}butyl)benzenesulfonamide]
2 | < 1000 nM | NS(=O)(=O)c1cccc(CCCCOCCCCCCNC[C@H](O)c2ccc(O)c(NC=O)c2)c1 [Example 1, 3-(4-{[6-({(2R)-2-[3-(Formylamino)-4-hydroxyphenyl]-2-hydroxyethyl}amino)hexyl]oxy}butyl)benzenesulfonamide compound with (2E)-but-2-enedioic acid (2:1)]
